In general, inhibition refers to the relative decrease from the control value, in per cent.

Test in all cases: biochemical
What all share (parameters): in vitro kinase selectivity panel, protein and lipid kinases, single concentration, ATP at Km
Common to all, as to conditions: ATP at Km

Experiment [1] concerns the target T1, CDK5/p35(h) (Homo sapiens, UniProt Q00535).
T1 construct: p35
The gist of the method:
(§1)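 Single-point screen against a protein and lipid kinase panel: inhibitor at 1 μM. ATP concentration for every kinase equivalent to its Km.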

Experiment [2] has as its target T2, CHK2(h) (Homo sapiens, UniProt O96017).
T2 construct: gene CHEK2
The method in brief: as §1

Experiment [3] has as its target T3, CK1γ3(h) (Homo sapiens, UniProt Q9Y6M4).
T3 construct: gene CSNK1G3
The method in brief: as §1

For experiment [4], the target named is T4, CK1δ(h) (Homo sapiens, UniProt P48730).
T4 construct: gene CSNK1D
The method in brief: as §1

The target in experiment [5] is T5, CK2(h) (Homo sapiens, UniProt P68400).
T5 construct: gene CSNK2A1
The gist of the method:
as §1

For experiment [6], the target named is DDR2(h) (Homo sapiens, UniProt Q16832). The gist of the method:
as §1

Experiment [7] deals with DGKB (Homo sapiens, UniProt Q9Y6T7). The method in brief:
as §1

Experiment [8] addresses DYRK2(h) (Homo sapiens, UniProt Q92630). The method in brief:
as §1

For experiment [9], the target named is EGFR(L858R)(h) (Homo sapiens, UniProt P00533, L858R). The method in brief: as §1
The target in experiment [10] is T6, FAK(h) (Homo sapiens, UniProt Q05397).
T6 construct: gene PTK2
The gist of the method: as §1

Experiment [11] addresses FGFR3(h) (Homo sapiens, UniProt P22607). The method in brief:
as §1

Experiment [12] addresses Flt3(D835Y)(h) (Homo sapiens, UniProt P36888, D835Y). The method in brief: as §1
The target in experiment [13] is HIPK3(h) (Homo sapiens, UniProt Q9H422). The gist of the method:
as §1

The target of experiment [14] is T7, MST3(h) (Homo sapiens, UniProt Q9Y6E0).
T7 construct: gene STK24
The method in brief: as §1

In experiment [15] the target is PI4K2A (Homo sapiens, UniProt Q9BTU6). The gist of the method:
as §1

For experiment [16], the target named is T8, PIK4A (Homo sapiens, UniProt P42356).
T8 construct: gene PI4KA
The gist of the method: as §1

Experiment [17] has as its target T9, PKCι(h) (Homo sapiens, UniProt P41743).
T9 construct: gene PRKCI
The method in brief:
as §1

Experiment [18] has as its target T10, ROCK-II(h) (Homo sapiens, UniProt O75116).
T10 construct: gene ROCK2
The method in brief:
as §1

T6 sequence (Q05397 whole entry): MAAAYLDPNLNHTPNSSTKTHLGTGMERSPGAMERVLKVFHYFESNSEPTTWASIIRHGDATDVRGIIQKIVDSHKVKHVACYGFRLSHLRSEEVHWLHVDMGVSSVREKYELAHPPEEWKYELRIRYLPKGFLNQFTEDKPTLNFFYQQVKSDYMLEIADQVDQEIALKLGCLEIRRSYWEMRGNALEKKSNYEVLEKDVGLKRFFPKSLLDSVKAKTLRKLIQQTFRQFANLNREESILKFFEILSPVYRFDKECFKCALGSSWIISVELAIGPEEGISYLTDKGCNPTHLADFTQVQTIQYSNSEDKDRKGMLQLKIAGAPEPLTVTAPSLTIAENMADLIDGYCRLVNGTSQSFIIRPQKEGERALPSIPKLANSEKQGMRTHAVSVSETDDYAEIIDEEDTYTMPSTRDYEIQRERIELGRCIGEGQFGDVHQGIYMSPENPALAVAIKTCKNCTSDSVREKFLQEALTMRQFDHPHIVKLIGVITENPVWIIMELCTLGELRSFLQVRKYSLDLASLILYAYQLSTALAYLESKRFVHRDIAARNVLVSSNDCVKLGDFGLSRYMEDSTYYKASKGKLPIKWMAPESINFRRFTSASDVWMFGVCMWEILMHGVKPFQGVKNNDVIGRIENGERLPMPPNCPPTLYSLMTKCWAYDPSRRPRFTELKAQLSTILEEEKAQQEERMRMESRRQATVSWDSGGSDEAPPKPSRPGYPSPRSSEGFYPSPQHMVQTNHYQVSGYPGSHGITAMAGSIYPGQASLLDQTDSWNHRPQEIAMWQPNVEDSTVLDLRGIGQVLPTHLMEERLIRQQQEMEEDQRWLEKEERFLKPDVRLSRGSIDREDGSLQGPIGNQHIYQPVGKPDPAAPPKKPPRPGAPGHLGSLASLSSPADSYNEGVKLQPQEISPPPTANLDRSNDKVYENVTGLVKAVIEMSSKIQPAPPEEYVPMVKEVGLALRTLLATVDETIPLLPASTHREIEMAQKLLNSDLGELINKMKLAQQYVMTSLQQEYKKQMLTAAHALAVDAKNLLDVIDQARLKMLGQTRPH
T8 sequence (P42356 whole entry): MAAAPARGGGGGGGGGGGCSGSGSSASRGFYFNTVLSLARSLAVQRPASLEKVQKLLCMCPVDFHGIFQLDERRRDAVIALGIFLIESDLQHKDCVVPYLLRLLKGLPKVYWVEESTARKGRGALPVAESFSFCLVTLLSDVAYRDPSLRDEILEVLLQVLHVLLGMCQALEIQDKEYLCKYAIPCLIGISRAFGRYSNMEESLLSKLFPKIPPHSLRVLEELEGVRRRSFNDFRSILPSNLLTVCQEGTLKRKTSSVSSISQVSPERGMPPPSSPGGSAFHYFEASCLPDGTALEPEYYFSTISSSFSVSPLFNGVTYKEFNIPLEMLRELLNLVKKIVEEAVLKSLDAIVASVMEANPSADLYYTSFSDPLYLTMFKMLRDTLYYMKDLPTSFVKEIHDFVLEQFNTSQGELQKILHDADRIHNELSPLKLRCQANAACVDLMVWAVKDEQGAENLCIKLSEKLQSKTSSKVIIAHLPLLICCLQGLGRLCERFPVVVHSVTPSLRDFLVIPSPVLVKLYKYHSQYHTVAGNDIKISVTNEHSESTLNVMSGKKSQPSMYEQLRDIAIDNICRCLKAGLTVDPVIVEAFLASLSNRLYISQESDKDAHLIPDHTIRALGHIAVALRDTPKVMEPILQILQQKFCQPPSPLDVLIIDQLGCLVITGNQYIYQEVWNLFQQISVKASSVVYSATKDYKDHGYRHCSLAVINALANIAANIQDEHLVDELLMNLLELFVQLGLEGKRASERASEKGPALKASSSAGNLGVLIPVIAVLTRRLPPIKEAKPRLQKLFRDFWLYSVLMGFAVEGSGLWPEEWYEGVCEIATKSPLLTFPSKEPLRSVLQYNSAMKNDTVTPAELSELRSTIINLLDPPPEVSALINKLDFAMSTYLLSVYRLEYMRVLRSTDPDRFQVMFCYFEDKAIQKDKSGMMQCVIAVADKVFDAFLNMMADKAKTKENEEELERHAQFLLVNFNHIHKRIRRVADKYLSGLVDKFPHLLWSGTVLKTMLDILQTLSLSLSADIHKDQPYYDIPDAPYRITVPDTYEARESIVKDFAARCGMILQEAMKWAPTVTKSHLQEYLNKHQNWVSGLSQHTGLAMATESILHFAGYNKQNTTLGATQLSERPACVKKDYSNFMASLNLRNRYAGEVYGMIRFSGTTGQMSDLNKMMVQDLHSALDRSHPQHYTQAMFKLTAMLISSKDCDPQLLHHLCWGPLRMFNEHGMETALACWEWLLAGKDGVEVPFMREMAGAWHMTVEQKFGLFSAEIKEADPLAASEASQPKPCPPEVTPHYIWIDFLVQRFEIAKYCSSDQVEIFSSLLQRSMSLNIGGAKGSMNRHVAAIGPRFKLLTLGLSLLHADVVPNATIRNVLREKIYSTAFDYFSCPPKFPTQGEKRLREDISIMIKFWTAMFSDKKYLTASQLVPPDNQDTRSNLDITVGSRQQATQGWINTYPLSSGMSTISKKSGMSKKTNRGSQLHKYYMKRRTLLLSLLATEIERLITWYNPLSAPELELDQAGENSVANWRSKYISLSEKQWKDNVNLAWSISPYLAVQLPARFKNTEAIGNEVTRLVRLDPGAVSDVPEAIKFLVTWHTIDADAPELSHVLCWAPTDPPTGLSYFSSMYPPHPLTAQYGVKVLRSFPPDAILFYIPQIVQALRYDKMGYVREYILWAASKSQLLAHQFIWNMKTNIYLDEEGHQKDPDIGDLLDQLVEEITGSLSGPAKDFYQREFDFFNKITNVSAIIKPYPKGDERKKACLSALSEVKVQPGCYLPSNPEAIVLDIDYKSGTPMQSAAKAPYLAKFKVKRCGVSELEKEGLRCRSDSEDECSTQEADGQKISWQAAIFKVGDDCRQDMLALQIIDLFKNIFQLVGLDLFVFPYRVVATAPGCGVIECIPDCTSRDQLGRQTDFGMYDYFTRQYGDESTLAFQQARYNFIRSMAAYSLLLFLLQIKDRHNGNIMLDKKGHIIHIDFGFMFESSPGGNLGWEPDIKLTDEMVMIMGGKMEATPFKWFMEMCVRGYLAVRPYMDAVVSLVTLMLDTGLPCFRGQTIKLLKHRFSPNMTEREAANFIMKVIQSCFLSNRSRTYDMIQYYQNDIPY
Sequence of PI4K2A (Q9BTU6 whole entry): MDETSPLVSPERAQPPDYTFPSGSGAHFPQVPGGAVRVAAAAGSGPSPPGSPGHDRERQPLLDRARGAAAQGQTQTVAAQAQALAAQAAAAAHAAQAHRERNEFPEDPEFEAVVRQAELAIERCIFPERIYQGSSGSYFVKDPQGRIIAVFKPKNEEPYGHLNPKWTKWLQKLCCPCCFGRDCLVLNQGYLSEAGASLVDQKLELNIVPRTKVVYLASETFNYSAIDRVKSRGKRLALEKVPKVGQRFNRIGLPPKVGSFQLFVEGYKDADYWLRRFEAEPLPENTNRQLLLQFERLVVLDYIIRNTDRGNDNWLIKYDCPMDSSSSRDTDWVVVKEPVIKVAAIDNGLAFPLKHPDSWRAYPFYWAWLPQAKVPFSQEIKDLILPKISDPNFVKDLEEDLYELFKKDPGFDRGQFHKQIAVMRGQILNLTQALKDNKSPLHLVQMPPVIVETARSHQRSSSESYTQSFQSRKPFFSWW
T7 sequence (Q9Y6E0 whole entry): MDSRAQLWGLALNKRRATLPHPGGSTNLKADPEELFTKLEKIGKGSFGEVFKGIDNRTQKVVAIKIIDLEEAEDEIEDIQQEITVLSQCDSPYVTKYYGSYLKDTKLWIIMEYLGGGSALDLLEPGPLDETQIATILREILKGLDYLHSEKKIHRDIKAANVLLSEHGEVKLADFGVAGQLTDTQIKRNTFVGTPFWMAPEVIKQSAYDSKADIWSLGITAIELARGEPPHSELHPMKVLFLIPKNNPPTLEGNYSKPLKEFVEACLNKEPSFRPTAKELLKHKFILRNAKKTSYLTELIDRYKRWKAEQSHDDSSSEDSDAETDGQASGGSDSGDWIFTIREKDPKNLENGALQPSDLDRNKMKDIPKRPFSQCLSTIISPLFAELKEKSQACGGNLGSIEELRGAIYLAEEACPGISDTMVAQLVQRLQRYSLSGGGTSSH
T1 sequence (Q00535 whole entry): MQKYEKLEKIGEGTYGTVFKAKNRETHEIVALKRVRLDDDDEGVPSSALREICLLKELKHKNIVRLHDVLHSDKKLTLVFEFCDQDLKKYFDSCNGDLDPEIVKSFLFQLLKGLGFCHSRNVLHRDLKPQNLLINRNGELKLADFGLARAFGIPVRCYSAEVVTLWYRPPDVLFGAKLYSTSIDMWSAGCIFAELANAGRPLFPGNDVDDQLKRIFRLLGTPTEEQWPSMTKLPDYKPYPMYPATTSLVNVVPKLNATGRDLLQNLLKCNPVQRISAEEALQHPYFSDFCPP
T1 sequence (Q15078 whole entry partner): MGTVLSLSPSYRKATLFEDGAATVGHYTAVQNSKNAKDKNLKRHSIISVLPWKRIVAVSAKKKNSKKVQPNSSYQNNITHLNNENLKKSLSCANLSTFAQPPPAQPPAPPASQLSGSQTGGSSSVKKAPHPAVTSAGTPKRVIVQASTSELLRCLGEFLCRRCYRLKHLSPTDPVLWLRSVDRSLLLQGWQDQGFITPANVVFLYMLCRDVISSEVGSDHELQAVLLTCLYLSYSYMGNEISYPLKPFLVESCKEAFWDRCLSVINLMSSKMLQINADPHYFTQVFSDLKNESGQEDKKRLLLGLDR

For `CC[C@@H](N)CNc1ccnc(-c2cc(-c3cnn(C)c3)ccc2O)n1` [CRT0066101], the inhibition at 1 µM in experiment [1] was 95%; in experiment [2] it was 26%; in [3], -3%; in [4] it was 13%; in experiment [5], 19%; in experiment [6], -3%. Also, the inhibition at 1 µM in experiment [7] was -9%; in experiment [8], 94%; in [9] it was -1%; in experiment [10], -11%; in experiment [11], -2%; in [12] it was 80%. Further, the inhibition at 1 µM in experiment [13] is 14%; in [14], -6%; in experiment [15] it was 4%; in experiment [16], -11%; in experiment [17] it was 10%; in experiment [18], 28%.

(Values after PMC5391474, “Investigation of the Role of Protein Kinase D in Human Rhinovirus Replication” (Journal of Virology, 2017).)
